These results are taken from paper PMC10180428, “α-Glucosidase Inhibitors from Two Mangrove-Derived Actinomycetes” (Molecules, 2023).

SMILES strings stand for the structures. Where two headings read alike, the source gives them in different places.

Data set [1] addresses T1, α-Glucosidase (AGS) (Saccharomyces cerevisiae, UniProt P53341). Description: biochemical. The conditions noted are these: read-out: AGS inhibitory activity IC50. The procedure: The AGS inhibitory activity was evaluated following the methods reported in the literature.
Data set [2] has as its target T1, α-Glucosidase (AGS). Description: Inhibition kinetics analysis (Lineweaver–Burk plots and secondary plots). Type of data set: biochemical. To be noted: for inhibition type against AGS: Lineweaver–Burk plots. How it is done:
Although several 2,5-DKP containing cyclodipeptides have been reported to inhibit the activity of AGS to different extents, little is known on the inhibition kinetics of these inhibitors. Herein, the inhibition kinetic mechanisms of 3, 8, 9, 11, 14, 16, and 17 against AGS were analyzed using the Lineweaver–Burk plots. The inhibition constants Ki and Ki’ of the inhibitors were calculated by secondary plots of “slope versus [I]” and “Y-intercept versus [I]”, respectively. […] This postulation was reinforced by the varied Km/Vmax values which were not in accordance with uncompetitive inhibition. However, the replots of the slope and y-intercept versus the concentration of 14 and 17 were not linearly fitted, which limited the application of Equations (3) and (4). […] It was interesting that seven cyclodipeptide congeners tended to inhibit the activity of AGS in four different manners, which was proposed to be caused by different substitutions on the 2,5-DKP moiety.
The mode of inhibition was determined by the Lineweaver–Burk plot using GraphPad Prism 8.0 software. The Km and Vmax values were obtained from the slope and y-axis intercept of the Lineweaver–Burk plot based on Equations (1) and (2):(1) Vmax=1/Y-intercept (2) Km=slope× Vmax
The Ki and Ki’ values were calculated by secondary plotting of the slope and y-intercept on the Lineweaver–Burk plot versus the inhibitor [I] based on Equations (3) and (4):(3) Slope=Km/Vmax+Km[I]/VmaxKi (4) Y-intercept=1/Vmax+[I]/VmaxKi^′

Data set [3] in a line: In vitro cytotoxicity MTT assay. It counts as cell-based. To be noted: human. The procedure: To preliminarily evaluate the safety of the AGS inhibitors, the in vitro cytotoxicity of 3, 8, 9, 11, 14, 16, and 17 toward human normal hepatocyte (LO2) cells was tested by MTT assay. […] Since cancer and diabetes are linked, these compounds need to be evaluated for cytotoxicity against a panel of cancer cell lines to assess their safety profile at least in vitro in future studies.
The LO2 cell line was cultured in a 1640 medium supplemented with 10% fetal bovine serum, 100 U/mL of penicillin, and 0.1 mg/mL of streptomycin in a humidified incubator with a 5% CO2 atmosphere at 37 °C. The cells were seeded in 96-well plates at a density of 3 × 10^3 cells per well. After 12 h, the medium in the wells was replaced by 100 µL of fresh medium containing drugs of six different concentrations. After incubation for another 48 h, the medium was removed and the fresh medium containing 10 µL of MTT (5 mg/mL) were added to each well and incubated for 4 h. Then, the medium was replaced by 100 µL of DMSO to dissolve the formazan crystals. OD570 was detected on a microplate reader. Parallel triplicate replication was performed for each dose, and the IC50 values were calculated.

Setting [4] is: inhibitor concentration 0.05 mM.
Setting [5] is: inhibitor concentration 0.08 mM.
Where [6] appears, read: inhibitor concentration 0.10 mM.
Where [7] appears, read: secondary plot of Y-intercept versus [I], binding to AGS-substrate complex, read-out: Ki.
The mark [8] stands for this setting: inhibitor concentration 0.06 mM.
The mark [9] stands for this setting: inhibitor concentration 0.07 mM.
[10] abbreviates: inhibitor concentration 0.09 mM.
Where [11] appears, read: inhibitor concentration 0.04 mM.

T1 sequence (P53341 whole entry): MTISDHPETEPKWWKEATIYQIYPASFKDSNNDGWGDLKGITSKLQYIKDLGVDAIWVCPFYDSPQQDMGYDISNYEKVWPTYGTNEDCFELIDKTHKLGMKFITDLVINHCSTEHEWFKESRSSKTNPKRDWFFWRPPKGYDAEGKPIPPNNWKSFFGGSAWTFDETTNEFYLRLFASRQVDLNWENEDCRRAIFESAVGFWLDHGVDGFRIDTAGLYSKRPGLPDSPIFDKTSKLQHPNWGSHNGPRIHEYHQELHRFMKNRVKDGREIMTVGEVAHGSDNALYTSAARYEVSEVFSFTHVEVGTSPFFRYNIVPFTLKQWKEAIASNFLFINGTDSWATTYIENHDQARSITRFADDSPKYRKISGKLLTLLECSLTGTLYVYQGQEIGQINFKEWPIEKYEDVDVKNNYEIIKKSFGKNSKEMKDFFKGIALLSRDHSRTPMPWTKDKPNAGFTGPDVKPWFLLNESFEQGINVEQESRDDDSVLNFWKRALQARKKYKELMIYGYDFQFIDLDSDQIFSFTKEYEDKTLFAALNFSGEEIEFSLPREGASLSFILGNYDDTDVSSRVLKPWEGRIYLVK

Regarding `CC[C@H](C)[C@@H]1NC(=O)[C@H](CC(C)C)NC1=O` [Compound 16, cyclo(L-Leu-L-Ile)], the IC50 on α-Glucosidase (AGS) [1] worked out at 74 ± 1.25 µM. For the same molecule, the inhibitory constant (Ki) on α-Glucosidase (AGS) [2] is 59.8 µM; at α-Glucosidase (AGS) [2] (setting [7]), 78.89 µM. At α-Glucosidase (AGS) [2], the “inhibition type against AGS” value is recorded as “mixed-type manner”. Also, the values for the Vmax on α-Glucosidase (AGS) [2] (setting [4]), at α-Glucosidase (AGS) [2] (setting [5]) and on α-Glucosidase (AGS) [2] (setting [6]) were 1.07 ± 0.13 µM/min, 0.86 ± 0.11 µM/min and 0.74 ± 0.07 µM/min, respectively. Also, the half-inhibitory concentration (IC50) at 48 h in data set [3] is greater than 100 µM.

Turning to `CC[C@H](C)[C@@H]1NC(=O)[C@H](Cc2ccc(O)cc2)NC1=O` [Compound 11, cyclo(L-Ile-L-Tyr)], the IC50 at α-Glucosidase (AGS) [1] amounted to 101 ± 2.52 µM. Further, the inhibitory constant (Ki) on α-Glucosidase (AGS) [2] came out at 95.5 µM; at α-Glucosidase (AGS) [2] (setting [7]) it was 531.53 µM. Also, at α-Glucosidase (AGS) [2], the “inhibition type against AGS” value is given as “mixed-type manner”. Moreover, the maximum rate (Vmax) at α-Glucosidase (AGS) [2] (setting [8]) came out at 0.98 ± 0.05 µM/min; at α-Glucosidase (AGS) [2] (setting [9]), 0.94 ± 0.02 µM/min; on α-Glucosidase (AGS) [2] (setting [10]), 0.90 ± 0.05 µM/min. The molecule further displayed a half-inhibitory concentration (IC50) at 48 h in data set [3] greater than 100 µM.

On to `O=C1N[C@@H](Cc2c[nH]c3ccccc23)C(=O)N2CCC[C@@H]12` [Compound 8, cyclo(L-Pro-L-Trp)], for which the IC50 at α-Glucosidase (AGS) [1] is 53.8 ± 1.88 µM. Besides, the results for the inhibitory constant (Ki) on α-Glucosidase (AGS) [2] and at α-Glucosidase (AGS) [2] (setting [7]) were 43.9 µM and 46.28 µM, respectively. The “inhibition type against AGS” value against α-Glucosidase (AGS) [2] is “non-competitive inhibitors”. Further, the Vmax at α-Glucosidase (AGS) [2] (inhibitor concentration 0.02 mM) amounted to 0.85 ± 0.05 µM/min; at α-Glucosidase (AGS) [2] (inhibitor concentration 0.03 mM) it was 0.66 ± 0.03 µM/min; on α-Glucosidase (AGS) [2] (setting [5]) it was 0.41 ± 0.03 µM/min. Besides, in data set [3] (LO2 cells (human normal hepatocyte cell line), MTT, 48 h incubation, read-out: Cytotoxicity IC50 against LO2 cells), the IC50 at 48 h is greater than 100 µM.

As to `O=C1N[C@@H](Cc2c[nH]c3ccccc23)C(=O)N[C@H]1CO` [Compound 9, cyclo(L-Ser-L-Trp)], the IC50 on α-Glucosidase (AGS) [1] is 164 ± 15.5 µM. The Ki on α-Glucosidase (AGS) [2] was 149 µM; on α-Glucosidase (AGS) [2] (setting [7]), 238.78 µM. Besides, at α-Glucosidase (AGS) [2], the “inhibition type against AGS” value is listed as “mixed-type manner”. Besides, the figures for the Vmax on α-Glucosidase (AGS) [2] (setting [4]), on α-Glucosidase (AGS) [2] (setting [5]) and at α-Glucosidase (AGS) [2] (inhibitor concentration 0.20 mM) were 1.33 ± 0.17 µM/min, 1.11 ± 0.14 µM/min and 0.89 ± 0.22 µM/min, respectively. For the same molecule, in data set [3], the IC50 at 48 h is greater than 100 µM.

Turning to `COC1CCC=C(C)C(=O)Nc2cc(O)cc(c2)CC(C)CC(OC)C(O)C(C)C=C(C)C1OC(N)=O` (stereo not shown) [Compound 3, autolytimycin], the half-inhibitory concentration (IC50) on α-Glucosidase (AGS) [1] came to 35.8 ± 0.4 µM. In addition, at α-Glucosidase (AGS) [2], the “inhibition type against AGS” value is on record as “non-competitive inhibitors”. The maximal velocity (Vmax) stood at 0.86 ± 0.03 µM/min on α-Glucosidase (AGS) [2] (setting [11]), 0.67 ± 0.04 µM/min on α-Glucosidase (AGS) [2] (setting [8]) and 0.46 ± 0.03 µM/min on α-Glucosidase (AGS) [2] (setting [5]). Further, the inhibitory constant (Ki) on α-Glucosidase (AGS) [2] (setting [7]) is 53.10 µM; on α-Glucosidase (AGS) [2] (secondary plot of slope versus [I], binding to free AGS, read-out: Ki), 49.2 µM. In addition, in data set [3], the half-maximal inhibitory concentration (IC50) at 48 h was greater than 100 µM.

For `O=C1NC(Cc2ccccc2)C(=O)NC1CO` [Compound 14, cyclo(L-Ser-L-Phe)], the IC50 at α-Glucosidase (AGS) [1] was determined as 62.2 ± 0.11 µM. At α-Glucosidase (AGS) [2], the “inhibition type against AGS” value is reported as “competitive inhibitor”. The Vmax at α-Glucosidase (AGS) [2] (setting [11]) came to 0.81 ± 0.06 µM/min; at α-Glucosidase (AGS) [2] (setting [10]), 0.76 ± 0.04 µM/min; at α-Glucosidase (AGS) [2] (setting [6]), 0.83 ± 0.18 µM/min. Moreover, in data set [3], the 50% inhibitory concentration (IC50) at 48 h is greater than 100 µM.

As to `C[C@@H]1NC(=O)[C@@H]2CCCN2C1=O` [Compound 17, cyclo(L-Ala-L-Pro)], on α-Glucosidase (AGS) [1], the IC50 worked out at 56.75 ± 0.32 µM. Further, the “inhibition type against AGS” value against α-Glucosidase (AGS) [2] is “non-competitive and uncompetitive mixed-type of inhibition”. Besides, the Vmax amounted to 0.79 ± 0.02 µM/min on α-Glucosidase (AGS) [2] (setting [8]), 0.66 ± 0.03 µM/min at α-Glucosidase (AGS) [2] (setting [9]) and 0.47 ± 0.01 µM/min on α-Glucosidase (AGS) [2] (setting [10]). Besides, in data set [3], the half-maximal inhibitory concentration (IC50) at 48 h was greater than 100 µM.

One may read the IC50 as the concentration that inhibits the measured activity by half. The term Ki denotes the equilibrium dissociation constant of an inhibitor or competing ligand from its target. In general, Vmax refers to the rate approached at saturating substrate.
